Experimental data taken from patent US20240415790A1, “A COMPOSITION FOR USE IN THE TREATMENT OF INTERVERTEBRAL DISC HERNIATION” (STAYBLE THERAPEUTICS AB, priority 2020, published 2024).

Tested on: patients with chronic discogenic low back pain
Experiment: Randomized placebo-controlled single ascending dose study, safety and tolerability of intradiscal injection
Type: in vivo, human
From the text: The study was a randomized, double-blinded, placebo-controlled, single ascending dose study with the primary objective to evaluate safety and tolerability following intradiscal injection of LA in Omnipaque or placebo (Omnipaque) in 15 patients with chronic discogenic low back pain. The secondary objective was to assess effects on the NP and disc height using T2-weighted MRI. […] Prior to dose escalation, the safety review committee assessed all safety data up to Visit 3 (1 week after treatment). In case of any safety or tolerability concerns, dosing could be discontinued, or the planned dose could be lowered. The test product in this study was containing the active ingredient (S)-LA, which was provided to the site as a sterile solution in a syringe for single use. The LA doses administered were 45, 90 and 180 mg in a volume of 1.5 mL, corresponding to LA concentrations of 30, 60 and 120 mg/mL. The formulation for administration was prepared extempore and contained the contrast agent iohexol (Omnipaque™) and water for injection. The final concentration of iohexol in the injected solution was 388 mg/mL. Small amounts of tromethamine, Na2Ca edetate and HCl were also present. The solution was clear and colourless to slightly coloured. At the treatment day, patients received premedication with a sedative or anxiolytic and antibiotics, given as an i.v. infusion approximately 15 min before the intradiscal injection. The patient was placed in the right lateral decubitus position and injection was done using the two-needle technique under fluoroscopy guidance. Once correct intradiscal needle placement had been confirmed, a small volume (approximately 0.5 mL) of the formulation was first injected slowly (during half a minute) to verify that the distribution of the injectate was confined to the disc and that there was no leakage. If no leakage had occurred within half a minute, this procedure was repeated twice until the entire volume (1.5 mL) had been injected. If there was any leakage from the disc during injection, either after injection of a small volume or the entire volume (1.5 mL), the injection was interrupted. […] All patients stayed overnight at the clinic after the injection, for observation and safety assessments. After leaving the clinic, patients were to be treated with analgesics and/or other measures according to standard clinical practice. They were also given advice on restricted physical activity during the first week. Physical examination, blood pressure, heart rate, electrocardiogram (ECG), clinical chemistry and hematology were assessed using routine clinical methods. Pain during and 15 min after injection was measured using a VAS scale (0-100 mm) and the patient reported whether or not the pain reproduced the pain normally experienced in terms of location and type of pain. The distribution of Omnipaque within the IVD was documented according to the Dallas discogram scale. Local site reactions to the injection were noted, and AEs were graded for seriousness, intensity, and causality to the treatment. SAEs were defined according to the International Conference of Harmonisation guideline E2A.

## CC(O)C(=O)O (stereo not shown) [LA, lactic acid]
LA 30 mg/ml (n = 3)
  Adverse events by causality, Possible, m number of events: 0
  Adverse events by causality, Possible, n (%) number of patients: 0
  Adverse events by causality, Probable, m number of events: 1
  Adverse events by causality, Probable, n (%) number of patients: 1 (33%)
  Adverse events by causality, Unlikely, m number of events: 3
  Adverse events by causality, Unlikely, n (%) number of patients: 2 (67%)
  Adverse events by severity, Mild, m number of events: 2
  Adverse events by severity, Mild, n (%) number of patients: 1 (33%)
  Adverse events by severity, Moderate, m number of events: 2
  Adverse events by severity, Moderate, n (%) number of patients: 1 (33%)
  Adverse events by severity, Severe, m number of events: 0
  Adverse events by severity, Severe, n (%) number of patients: 0
  Any adverse event, m number of events: 4
  Any adverse event, n (%) number of patients: 2 (67%)
  Any serious adverse event, m number of events: 0
  Any serious adverse event, n (%) number of patients: 0
LA 60 mg/ml (n = 3)
  Adverse events by causality, Possible, m number of events: 0
  Adverse events by causality, Possible, n (%) number of patients: 0
  Adverse events by causality, Probable, m number of events: 3
  Adverse events by causality, Probable, n (%) number of patients: 3 (100%)
  Adverse events by causality, Unlikely, m number of events: 0
  Adverse events by causality, Unlikely, n (%) number of patients: 0
  Adverse events by severity, Mild, m number of events: 1
  Adverse events by severity, Mild, n (%) number of patients: 1 (33%)
  Adverse events by severity, Moderate, m number of events: 2
  Adverse events by severity, Moderate, n (%) number of patients: 2 (67%)
  Adverse events by severity, Severe, m number of events: 0
  Adverse events by severity, Severe, n (%) number of patients: 0
  Any adverse event, m number of events: 3
  Any adverse event, n (%) number of patients: 3 (100%)
  Any serious adverse event, m number of events: 0
  Any serious adverse event, n (%) number of patients: 0
LA 120 mg/ml (n = 3)
  Adverse events by causality, Possible, m number of events: 1
  Adverse events by causality, Possible, n (%) number of patients: 1 (33%)
  Adverse events by causality, Probable, m number of events: 4
  Adverse events by causality, Probable, n (%) number of patients: 2 (67%)
  Adverse events by causality, Unlikely, m number of events: 3
  Adverse events by causality, Unlikely, n (%) number of patients: 2 (67%)
  Adverse events by severity, Mild, m number of events: 6
  Adverse events by severity, Mild, n (%) number of patients: 3 (100%)
  Adverse events by severity, Moderate, m number of events: 2
  Adverse events by severity, Moderate, n (%) number of patients: 1 (33%)
  Adverse events by severity, Severe, m number of events: 0
  Adverse events by severity, Severe, n (%) number of patients: 0
  Any adverse event, m number of events: 8
  Any adverse event, n (%) number of patients: 3 (100%)
  Any serious adverse event, m number of events: 0
  Any serious adverse event, n (%) number of patients: 0
patients, intradiscal 45-180 mg
  Safety and tolerability of the treatment: safe and tolerable
